pIC50: −log10 of the molar value.
These molecules were tested against T1, Human KLK1 (Homo sapiens, UniProt P06870) (assay: Determination of the IC50 for KLK1 (fluorogenic substrate H-DVal-Leu-Arg-AFC)). Details: 37° C.
T1 construct: purchased Callbiochem (Calbiochem)
Assay type: biochemical
Summary of the method: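 Human KLK1 incubated at 37° C with fluorogenic substrate H-DVal-Leu-Arg-AFC and a range of test compound concentrations. Residual activity taken as initial reaction rate from absorbance change at 410 nm; IC50 derived from these rates.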

T1 sequence (P06870 25-262): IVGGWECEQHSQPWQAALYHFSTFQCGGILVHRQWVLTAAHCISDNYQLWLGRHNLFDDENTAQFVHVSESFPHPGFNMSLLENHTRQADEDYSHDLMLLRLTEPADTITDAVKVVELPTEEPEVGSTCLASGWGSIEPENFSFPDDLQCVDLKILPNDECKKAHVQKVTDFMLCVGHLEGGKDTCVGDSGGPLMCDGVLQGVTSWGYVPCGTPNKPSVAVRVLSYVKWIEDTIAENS

| Structure (SMILES) | pIC50 |
| --- | --- |
| CCC(C)[C@H](N)C(=O)N[C@@H](CC1CCCC2CCCCC21)C(=O)NCc1ccc(N)nc1 (stereo partly drawn) [Example 12, (S)-2-Amino-3-methyl-pentanoic acid [(S)-1-[(6-amino-pyridin-3-ylmethyl)-carbamoyl]-2-(decahydro-naphthalen-1-yl)-ethyl]-amide] | 8.20 |
| CC(C)[C@H](C(=O)N[C@@H](Cc1ccc(Cl)c(Cl)c1)C(=O)NCc1ccc(N)nc1)N(C)C [Example 399, (R)—N-[(S)-1-[(6-Amino-pyridin-3-ylmethyl)-carbamoyl]-2-(3,4-dichloro-phenyl)-ethyl]-2-dimethylamino-3-methyl-butyramide] | 9.13 |
| CCC(C)[C@H](N)C(=O)N[C@@H](Cc1ccc(F)c(F)c1)C(=O)NCc1ccc(N)nc1 (stereo partly drawn) [Example 83, (S)-2-Amino-3-methyl-pentanoic acid [(S)-1-[(6-amino-pyridin-3-ylmethyl)-carbamoyl]-2-(3,4-difluoro-phenyl)-ethyl]-amide] | 6.80 |
| Cc1cc(C)c(C(=O)N[C@@H](Cc2cc(F)cc(F)c2)C(=O)NCc2ccc(N)nc2)[nH]1 [Example 249, 3,5-Dimethyl-1H-pyrrole-2-carboxylic acid [(S)-1-[(6-amino-pyridin-3-ylmethyl)-carbamoyl]-2-(3,5-difluoro-phenyl)-ethyl]-amide] | 8.16 |
| CCN(C)[C@@H](C)C(=O)N[C@@H](Cc1cccc(C)c1)C(=O)NCc1ccc(N)nc1 [Example 413, (S)—N-{(S)-1-[(6-Amino-pyridin-3-ylmethyl)-carbamoyl]-2-m-tolyl-ethyl}-2-(ethyl-methyl-amino)-propionamide] | 8.10 |
| Nc1ccc(CNC(=O)[C@H](Cc2ccc(F)c(F)c2)NC(=O)[C@H]2CCCN2Cc2ccc(Cl)cc2)cn1 [Example 142, (R)-1-(4-Chloro-benzyl)-pyrrolidine-2-carboxylic acid [(S)-1-[(6-amino-pyridin-3-ylmethyl)-carbamoyl]-2-(3,4-difluoro-phenyl)-ethyl]-amide] | 7.82 |
| CN1CCC[C@H]1C(=O)N[C@@H](CC1CCCCC1)C(=O)NCc1ccc(N)nc1 [Example 382, (S)-1-Methyl-pyrrolidine-2-carboxylic acid {(S)-1-[(6-amino-pyridin-3-ylmethyl)-carbamoyl]-2-cyclohexyl-ethyl}-amide] | 7.31 |
| Nc1ccc(CNC(=O)[C@H](Cc2ccc(Cl)c(Cl)c2)NC(=O)[C@H]2CCCN2Cc2ccccc2)cn1 [Example 141, (R)-1-Benzyl-pyrrolidine-2-carboxylic acid [(S)-1-[(6-amino-pyridin-3-ylmethyl)-carbamoyl]-2-(3,4-dichloro-phenyl)-ethyl]-amide] | 7.86 |
| CCN(C)[C@@H](C)C(=O)N[C@@H](Cc1ccc(F)c(F)c1)C(=O)NCc1ccc(N)nc1 [Example 345, (S)—N-[(S)-1-[(6-Amino-pyridin-3-ylmethyl)-carbamoyl]-2-(3,4-difluoro-phenyl)-ethyl]-2-(ethyl-methyl-amino)-propionamide] | 8.11 |
| CC(C)C[C@@H](N)C(=O)N[C@@H](CC1CCCC2CCCCC21)C(=O)NCc1ccc(N)nc1 (stereo partly drawn) [Example 16, (R)-2-Amino-4-methyl-pentanoic acid [(S)-1-[(6-amino-pyridin-3-ylmethyl)-carbamoyl]-2-(decahydro-naphthalen-1-yl)-ethyl]-amide] | 8.96 |
| Nc1ccc(CNC(=O)[C@H](Cc2cccc(C(F)(F)F)c2)NC(=O)c2cc3ccccc3[nH]2)cn1 [Example 307, 1H-Indole-2-carboxylic acid [(S)-1-[(6-amino-pyridin-3-ylmethyl)-carbamoyl]-2-(3-trifluoromethyl-phenyl)-ethyl]-amide] | 7.66 |
| Cc1nc(N)ccc1CNC(=O)[C@H](Cc1ccc(Cl)c(Cl)c1)NC(=O)[C@H](N)C(C)(C)C [Example 199, (R)-2-Amino-N-[(S)-1-[(6-amino-2-methyl-pyridin-3-ylmethyl)-carbamoyl]-2-(3,4-dichloro-phenyl)-ethyl]-3,3-dimethyl-butyramide] | 8.85 |
| CC(C(=O)N[C@@H](Cc1cc(F)cc(F)c1)C(=O)NCc1ccc(N)nc1)N1CCCCC1 (stereo partly drawn) [Example 425, N-[(S)-1-[(6-Amino-pyridin-3-ylmethyl)-carbamoyl]-2-(3,5-difluoro-phenyl)-ethyl]-2-piperidin-1-yl-propionamide] | 7.83 |
| Cc1ccc(-c2ccc(C(=O)N[C@@H](Cc3ccc(Cl)c(Cl)c3)C(=O)NCc3ccc(N)nc3)[nH]2)cc1 [Example 296, 5-p-Tolyl-1H-pyrrole-2-carboxylic acid [(S)-1-[(6-amino-pyridin-3-ylmethyl)-carbamoyl]-2-(3,4-dichloro-phenyl)-ethyl]-amide] | 7.39 |
| Nc1ccc(CNC(=O)[C@H](Cc2ccc(F)c(F)c2)NC(=O)CN2CCCCC2)cn1 [Example 170, (S)—N-(6-Amino-pyridin-3-ylmethyl)-3-(3,4-difluoro-phenyl)-2-(2-piperidin-1-yl-acetylamino)-propionamide] | 7.78 |
| CN[C@@H](C)C(=O)N[C@@H](C(=O)NCc1ccc(N)nc1)C(C1CCCCC1)C1CCCCC1 [Example 218, (S)—N-{(R)-1-[(6-Amino-pyridin-3-ylmethyl)-carbamoyl]-2,2-dicyclohexyl-ethyl}-2-methylamino-propionamide] | 7.45 |
| Nc1ccc(CNC(=O)[C@H](Cc2ccc(F)c(F)c2)NC(=O)CN2CCc3ccccc3C2)cn1 [Example 172, (S)—N-(6-Amino-pyridin-3-ylmethyl)-3-(3,4-difluoro-phenyl)-2-(2-3,4-dihydro-1H-isoquinolin-2-yl-acetylamino)-propionamide] | 7.90 |
| Nc1ccc(CNC(=O)[C@H](Cc2cc(F)cc(F)c2)NC(=O)c2cc3ccccc3[nH]2)cn1 [Example 323, 1H-Indole-2-carboxylic acid [(S)-1-[(6-amino-pyridin-3-ylmethyl)-carbamoyl]-2-(3,5-difluoro-phenyl)-ethyl]-amide] | 7.32 |
| Cc1cc(C)c(C(=O)N[C@@H](Cc2c[nH]c3ccccc23)C(=O)NCc2ccc(N)nc2)[nH]1 [Example 241, 3,5-Dimethyl-1H-pyrrole-2-carboxylic acid [(S)-1-[(6-amino-pyridin-3-ylmethyl)-carbamoyl]-2-(1H-indol-3-yl)-ethyl]-amide] | 8.42 |
| CN(C/C=C/c1ccccc1)CC(=O)N[C@@H](Cc1ccc(F)c(F)c1)C(=O)NCc1ccc(N)nc1 [Example 162, (S)—N-(6-Amino-pyridin-3-ylmethyl)-3-(3,4-difluoro-phenyl)-2-{2-[methyl-((E)-3-phenyl-allyl)-amino]-acetylamino}-propionamide] | 7.42 |
| CN1CCC[C@@H]1C(=O)N[C@@H](Cc1cc(F)cc(F)c1)C(=O)NCc1ccc(N)nc1 [Example 96, (R)-1-Methyl-pyrrolidine-2-carboxylic acid [(S)-1-[(6-amino-pyridin-3-ylmethyl)-carbamoyl]-2-(3,5-difluoro-phenyl)-ethyl]-amide] | 8.26 |
| Cc1cc(C)c(C(=O)N[C@@H](Cc2ccc(C(C)(C)C)cc2)C(=O)NCc2ccc(N)nc2)[nH]1 [Example 256, 3,5-Dimethyl-1H-pyrrole-2-carboxylic acid [(S)-1-[(6-amino-pyridin-3-ylmethyl)-carbamoyl]-2-(4-tert-butyl-phenyl)-ethyl]-amide] | 6.91 |
